Measurements taken from patent publication US20210221791A1, “COMPOUNDS” (UNIVERSITETET I OSLO, priority 2016, published 2021).
Read-outs that look alike come from different tables or passages of the source.

Tests used:
[1] = zinc-binding ability; known/prior art value; cited from earlier work
[2] = target: VIM-2 (Escherichia coli, UniProt Q5U7L7); assay type: biochemical; details: purified VIM-2, PD-10 column; EDTA at 100 μM
Method: The eluent used was Chelex-treated HEPES 50 mM buffer, pH 7.5. […] In all experiments, 16 aliquots of 250 μL were taken from the PD-10 column runsout and enzyme activity was analysed. Enzyme activity was measured by adding Nitrocefin as a reporter substrate (final concentration of 50 μM).
To investigate if more extreme time-dependent and concentration-dependent conditions could restore enzyme activity, aliquots having final concentrations of 30 nM column-treated enzyme and 1000 μM Zn^2+ on ice and at room temperature over prolonged time.

[3] = test system: K. pneumoniae K66-45; assay type: cell-based; details: inhibitor 25 mg/L
Method: After plating and grown overnight at 37° C., only single colonies, ignoring any touching the edges of the plate, were counted.
10^9 CFU K66-45 (Mueller-Hinton broth, no selection) was plated and grown overnight, 37° C. Only single colonies, ignoring any touching the edges of the plate, were counted.

[4] = test system: resistant gram-negative MBL-based bacteria; assay: MICx: lowest adjuvant concentration giving carbapenem MIC ≤2 mg/L; assay type: cell-based; details: for adjuvant effect at an inhibitor concentration of 25 mg/L: meropenem, K34-7 and K66-45

c1ccc(CNCc2ccccn2)nc1 [DPA, dipicoylamine]
pKd [1]: < 8

O=C(O)CN(CCN(CC(=O)O)CC(=O)O)CC(=O)O [EDTA, ethylenediaminetetra-acetic acid, reference compound]
irreversibility of VIM-2 inhibition [2]: did not inhibit VIM-2 irreversibly

CN(C[C@H](O)[C@@H](O)[C@H](O)[C@H](O)CO)C(=O)Cc1ccc(NC(=O)CN(CCN(Cc2ccccn2)Cc2ccccn2)Cc2ccccn2)cc1 [Example 25, 2-(4-(2-((2-(bis(pyridin-2-ylmethyl)amino)ethyl)(pyridin-2-ylmethyl)amino)acetamido)phenyl)-N-methyl-N-(2,3,4,5,6-pentahydroxyhexyl)acetamide]
RF - no of colonies ([3]; MEM 2 mg/L): nc (n.c. = no colonies)
RF - no of colonies ([3]; MEM 4 mg/L): nc (n.c. = no colonies)
RF - no of colonies ([3]; MEM 8 mg/L): nc (n.c. = no colonies)

O=C(NCCc1ccc(-n2cc(CN(Cc3ccccn3)Cc3ccccn3)nn2)cc1)[C@H]1O[C@H](O)[C@H](O)[C@@H](O)[C@H]1O [Example 101, (2S,3R,4S,5R,6S)—N-(4-(4-((Bis(pyridin-2-ylmethyl)amino)methyl)-1H-1,2,3-triazol-1-yl)phenethyl)-3,4,5,6-tetrahydroxytetrahydro-2H-pyran-2-carboxamide]
adjuvant concentration range at which efficient [4]: 100 to 150 µM
adjuvant effect at an inhibitor concentration of 25 mg/L [4]: less activity as an adjuvant

O=C(Cc1ccc(-n2cc(CN(Cc3ccccn3)Cc3ccccn3)nn2)cc1)N[C@@H](Cc1cccc(C(=O)O)c1)B(O)O [Example 157, (R)-3-(2-(2-(4-(4-((bis(pyridin-2-ylmethyl)amino)methyl)-1H-1,2,3-triazol-1-yl)phenyl)acetamido)-2-boronoethyl)benzoic acid]
adjuvant effect at an inhibitor concentration of 25 mg/L [4]: less activity as an adjuvant

COC(=O)c1ccc(CN(Cc2ccccn2)Cc2ccccn2)s1 [Example 180, Methyl 5-((bis(pyridin-2-ylmethyl)amino)methyl)thiophene-2-carboxylate]
adjuvant effect at an inhibitor concentration of 25 mg/L [4]: completely abolishes the adjuvant effect

CN(C[C@H](O)[C@@H](O)[C@H](O)[C@H](O)CO)C(=O)c1ccc(CN(Cc2ccccn2)Cc2ccccn2)s1 [Example 182, 5-((bis(pyridin-2-ylmethyl)amino)methyl)-N-methyl-N-((2S,3R,4R,5R)-2,3,4,5,6-pentahydroxyhexyl)thiophene-2-carboxamide]
adjuvant effect at an inhibitor concentration of 25 mg/L [4]: completely abolishes the adjuvant effect

CN(C[C@H](O)[C@@H](O)[C@H](O)[C@H](O)CO)C(=O)c1ccc(CN(Cc2ccccc2)Cc2ccccc2)nc1 [Example 185, 6-((dibenzylamino)methyl)-N-methyl-N-((2S,3R,4R,5R)-2,3,4,5,6-pentahydroxyhexyl)nicotinamide]
adjuvant effect at an inhibitor concentration of 25 mg/L [4]: completely abolishes the adjuvant effect

CN(C[C@H](O)[C@@H](O)[C@H](O)[C@H](O)CO)C(=O)c1ccc(CN(Cc2ccccc2)Cc2ccccn2)nc1 [Example 187, 6-((benzyl(pyridin-2-ylmethyl)amino)methyl)-N-methyl-N-((2S,3R,4R,5R)-2,3,4,5,6-pentahydroxyhexyl)nicotinamide]
adjuvant effect at an inhibitor concentration of 25 mg/L [4]: completely abolishes the adjuvant effect

COC(=O)[C@@H](C)NC(=O)[C@@H](C)NC(=O)Cn1cc(CN(Cc2ccccn2)Cc2ccccn2)nn1 [Example 194, Methyl (2-(4-((bis(pyridin-2-ylmethyl)amino)methyl)1H-1,2,3-triazol-1-yl)acetyl)-D-alanyl-D-alaninate, reference compound]
adjuvant concentration range at which efficient [4]: 100 to 150 µM

c1ccc(CN(Cc2ccccn2)Cc2ccccn2)nc1 [TPA, N,N,N-tris(2-pyridylmethyl) amine]
pKd [1]: about 12

c1ccc(CN(CCN(Cc2ccccn2)Cc2ccccn2)Cc2ccccn2)nc1 [TPEN, N,N,N′,N′-tetrakis(2-pyridylmethyl) ethylenediamine, reference compound]
irreversibility of VIM-2 inhibition [2]: irreversibly inhibited
